These are literature values, as cited in patent publication US20140127291A1, “EXTENDED RELEASE ACETAMINOPHEN LIQUID PHARMACEUTICAL COMPOSITIONS” (MAYNE PHARMA INTERNATIONAL PTY LTD, priority 2011, published 2014).

For series [1] the following is noted: in vivo.

Take `CC(=O)Nc1ccc(O)cc1` [acetaminophen]: the “saturation concentration in water” value is “about 14 mg/ml”. Further, in series [1], the half life was 1 to 4 h.
